Calls of active or inactive are those of the source. No cut-off for these calls is given here.
Legend:
U2OS = test: Cytotoxicity against human U2OS cells measured after 24 hrs by MTT assay; assay type: functional, cell-based
HCT-116 = test: Cytotoxicity against human HCT116 cells measured after 24 hrs by MTT assay; assay type: functional, cell-based; conditions: HCT-116, 24 h
MCF7 [1] = test: Cytotoxicity against human MCF7 cells measured after 24 hrs by MTT assay; assay type: functional, cell-based; conditions: MCF7, 24 h
MCF7 [2] = test: Induction of apoptosis in human MCF7 cells assessed as activation of cleaved caspase-7; assay type: functional, cell-based
MCF7 [3] = test: Induction of cell death in human MCF7 cells assessed as increase in ROS level measured after 24 hrs by DCFHDA probe based flow cytometry; assay type: functional
MCF7 [4] = test: Induction of endoplasmic reticulum vacuolation in human MCF7 cells assessed as increase in vacuole formation at 5 to 20 uM measured after 24 hrs by ER-tracker and Hoechst 33342 staining based confocal microscopy; assay type: functional, cell-based
MCF7 [5] = test: Induction of apoptosis in human MCF7 cells assessed as activation of cleaved caspase-3; assay type: functional, cell-based
MCF7 [6] = test: Induction of apoptosis in human MCF7 cells assessed as activation of cleaved PARP; assay type: functional, cell-based
MCF7 [7] = test: Induction of endoplasmic reticular stress in human MCF7 cells assessed as upregulation of XBP1s by Western blot analysis; assay type: functional, cell-based
MCF7 [8] = test: Induction of cell death in human MCF7 cells assessed as increase in intracellular calcium measured after 24 hrs by Fluo-4/AM probe based confocal microscopic analysis; assay type: functional
MCF7 [9] = test: Induction of apoptosis in human MCF7 cells assessed as activation of cleaved caspase-9; assay type: functional, cell-based
MCF7 [10] = test: Induction of ROS-mediated autophagy in human MCF7 cells assessed as increase in autophagosome numbers; assay type: functional, cell-based
MCF7 [11] = test: Induction of ROS-mediated autophagy in human MCF7 cells assessed as increase in LC3-2/LC3-1 ratio; assay type: functional, cell-based
MCF7 [12] = test: Induction of endoplasmic reticular stress in human MCF7 cells assessed as upregulation of GRP78 by Western blot analysis; assay type: functional, cell-based
MCF7 [13] = test: Induction of endoplasmic reticular stress in human MCF7 cells assessed as upregulation of CHOP by Western blot analysis; assay type: functional, cell-based
MCF-10A = test: Cytotoxicity against human MCF10A cells at 3.125 to 50 uM measured after 24 hrs by MTT assay; assay type: cell-based
MCF7 [14] = test: Induction of morphological changes in human MCF7 cells assessed as change in vacuole at 5 to 20 uM measured after 24 hrs by optical microscopy analysis; assay type: functional, cell-based
MCF7 [15] = test: Induction of mitochondria-mediated apoptosis in human MCF7 cells; assay type: functional, cell-based
MCF7 [16] = test: Induction of mitochondrial morphological changes in human MCF7 cells assessed as dilation of mitochondria at 5 to 20 uM measured after 24 hrs by Mito-tracker and Hoechst 33342 staining based confocal microscopy; assay type: functional, cell-based
MCF7 [17] = test: Induction of endoplasmic reticular stress in human MCF7 cells assessed as upregulation of IRE1a by Western blot analysis; assay type: functional, cell-based
MCF7 [18] = test: Induction of ROS-mediated autophagy in human MCF7 cells assessed as downregulation of p62; assay type: functional, cell-based

C=C1CC[C@@H]2[C@](C)(CCC[C@@]2(C)C(=O)OC)[C@H]1C/C=C(\C)[C@@H]1C[C@@H]2C[C@H]3C(C)(C)CCC[C@]3(C)c3ccc(O)c(c32)O1
IC50 (U2OS): > 50 µM
IC50 (HCT-116): > 50 µM
IC50 (MCF7 [1]): > 50 µM

C=C1CC[C@@H]2[C@](C)(CCC[C@@]2(C)C(=O)O)[C@H]1C/C=C(\C)[C@H]1C[C@H]2C[C@H]3C(C)(C)CCC[C@]3(C)c3ccc(O)c(c32)O1
IC50 (U2OS): 9.7 µM
IC50 (HCT-116): 7.8 µM
IC50 (MCF7 [1]): 9.9 µM

C=C1CC[C@@H]2[C@](C)(CCC[C@@]2(C)C(=O)O)[C@H]1C/C=C(\C)[C@@H]1C[C@@H]2C[C@H]3C(C)(C)CCC[C@]3(C)c3ccc(O)c(c32)O1
IC50 (U2OS): 8.4 µM
Activity (MCF7 [2]): Active
Activity (MCF7 [3]): Dose-dependent effect
Activity (MCF7 [4]): Active
Activity (MCF7 [5]): Active
IC50 (HCT-116): 7.5 µM
Activity (MCF7 [6]): Active
Activity (MCF7 [7]): Active
Activity (MCF7 [8]): Dose-dependent effect
Activity (MCF7 [9]): Active
Activity (MCF7 [10]): Active
Activity (MCF7 [11]): Active
IC50 (MCF7 [1]): 7.4 µM
Activity (MCF7 [12]): Active
Activity (MCF7 [13]): Active
Activity (MCF-10A): Toxic
Activity (MCF7 [14]): Active
Activity (MCF7 [15]): Active
Activity (MCF7 [16]): Active
Activity (MCF7 [17]): Active
Activity (MCF7 [18]): Active
